These results are taken from patent publication US9708314B2, “Heterocyclic amide compound” (NISSAN CHEMICAL INDUSTRIES, LTD., priority 2013, dated 2017).

The subject of data set [1] is Echinochloa oryzacola Vasing. Kind of data set: Test Example 1: herbicidal activity, application before weed generation in submerged conditions. Type of data set: in vivo. The settings on record: Application herbicide amount 320 g/ha; Seventeenth Table. In short, it runs like this:
(§1)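 Submerged pot test: alluvial soil, 4 cm water, seeds sown mixed, 2.5-leaf rice transplanted; emulsion in water applied to surface day of sowing, dose g/ha; greenhouse 25–30° C.; 3 wk; 0–5 rating.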

A further data set deals with Monochoria vaginalis. The data set is described as above. Particulars: Application herbicide amount 320 g/ha; Seventeenth Table. Type of data set: in vivo. In short, it runs like this:
as §1

The subject of a further data set is Scirpus juncoides. The description is as above. Type of data set: in vivo. Particulars: Application herbicide amount 320 g/ha; Seventeenth Table. In short, it runs like this:
as §1

Another data set relates to Cyperus difformis. Nature of the data set: Test Example 3: herbicidal effect by application to foliage (Wagner pot, water depth 0.1-0.5 cm). Type of data set: in vivo. Particulars: Nineteenth Table; application to foliage; application herbicide amount 320 g/ha. A digest of the protocol:
(§2)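 Foliar spray, 14-day-old plants, emulsion diluted to target g/ha; rated 3 wk post-application, 0–5 scale (0 ≤5%, 5 ≥90% herbicidal ratio). Greenhouse 25–30 °C, alluvial soil.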

Data set [2] deals with Echinochloa crus-galli var. crus-galli. The data set is described as above. Type of data set: in vivo. Particulars: Nineteenth Table; application to foliage; application herbicide amount 320 g/ha. A digest of the protocol: as §2
Another data set concerns Leptochloa chinensis. Kind of data set: Test Example 3: herbicidal effect by application to foliage (Wagner pot, water depth 0.1-0.5 cm). Type of data set: in vivo. Particulars: Nineteenth Table; application to foliage; application herbicide amount 320 g/ha. A digest of the protocol:
as §2

For `CC(C)c1nnc2c(C(=S)Nc3nnnn3C)ccc(C(F)(F)F)n12` [2-039, 3-Isopropyl-N-(1-methyl-1H-tetrazol-5-yl)-5-(trifluoromethyl)-[1,2,4]triazolo[4,3-a]pyridine-8-carbothioamide], the melting point lay within 198 to 200 °C. Besides, the “A: Echinochloa oryzicola Vasing. (herbicidal effect grade)” value in data set [1] is reported as 5 (Herbicidal ratio of 90% or more (almost completely withered)). Further, the “C: Monochoria vaginalis (herbicidal effect grade)” value (“C: Monochoria vaginalis” below) in the data set on Monochoria vaginalis was 5 (Herbicidal ratio of 90% or more (almost completely withered)). Also, in the data set with Scirpus juncoides, the “B: Scirpus juncoides (herbicidal effect grade)” value (from here on “B: Scirpus juncoides”) is given as 5 (Herbicidal ratio of 90% or more (almost completely withered)). Moreover, the “E (herbicidal effect grade)” value with Cyperus difformis is listed as 5 (Herbicidal ratio of 90% or more (almost completely withered)). Besides, in data set [2], the “H (herbicidal effect grade)” value was 5 (Herbicidal ratio of 90% or more (almost completely withered)).
Regarding `Cn1nnnc1NC(=O)c1ccc(C(F)(F)F)n2c(Nc3ccccc3)nnc12` [2-056], in data set [1], the “A: Echinochloa oryzicola Vasing. (herbicidal effect grade)” value was 4 (Herbicidal ratio of 70% or more and less than 90%). In addition, the “C: Monochoria vaginalis” value in the data set with Monochoria vaginalis is 3 (Herbicidal ratio of 40% or more and less than 70%). Also, the “B: Scirpus juncoides” value with Scirpus juncoides is 4 (Herbicidal ratio of 70% or more and less than 90%). Besides, the “E (herbicidal effect grade)” value with Cyperus difformis was 4 (Herbicidal ratio of 70% or more and less than 90%). Moreover, the “H (herbicidal effect grade)” value in data set [2] is 4 (Herbicidal ratio of 70% or more and less than 90%). Also, in the data set with Leptochloa chinensis, the “D (herbicidal effect grade)” value is reported as 5 (Herbicidal ratio of 90% or more (almost completely withered)).
Regarding `Cc1ccc(-c2nnc3c(C(=O)Nc4nnnn4C)ccc(C(F)(F)F)n23)cc1` [2-042], the “A: Echinochloa oryzicola Vasing. (herbicidal effect grade)” value in data set [1] was 5 (Herbicidal ratio of 90% or more (almost completely withered)). Besides, in the data set on Monochoria vaginalis, the “C: Monochoria vaginalis” value was 4 (Herbicidal ratio of 70% or more and less than 90%). Also, the “B: Scirpus juncoides” value in the data set with Scirpus juncoides was 4 (Herbicidal ratio of 70% or more and less than 90%). The “E (herbicidal effect grade)” value in the data set with Cyperus difformis was 5 (Herbicidal ratio of 90% or more (almost completely withered)). Further, in data set [2], the “H (herbicidal effect grade)” value was 5 (Herbicidal ratio of 90% or more (almost completely withered)). In addition, in the data set on Leptochloa chinensis, the “D (herbicidal effect grade)” value was 5 (Herbicidal ratio of 90% or more (almost completely withered)).
Consider `Cn1nnnc1NC(=O)c1ccc(C(F)(F)F)n2c([S+](C)[O-])nnc12` (stereo not drawn) [2-067], for which the “A: Echinochloa oryzicola Vasing. (herbicidal effect grade)” value in data set [1] is reported as 5 (Herbicidal ratio of 90% or more (almost completely withered)). Also, the “C: Monochoria vaginalis” value with Monochoria vaginalis is 4 (Herbicidal ratio of 70% or more and less than 90%). Besides, the “B: Scirpus juncoides” value in the data set on Scirpus juncoides is 4 (Herbicidal ratio of 70% or more and less than 90%). Further, in the data set on Cyperus difformis, the “E (herbicidal effect grade)” value was 5 (Herbicidal ratio of 90% or more (almost completely withered)). For the same compound, in data set [2], the “H (herbicidal effect grade)” value is 5 (Herbicidal ratio of 90% or more (almost completely withered)). Moreover, the “D (herbicidal effect grade)” value in the data set on Leptochloa chinensis is listed as 5 (Herbicidal ratio of 90% or more (almost completely withered)).
Turning to `CSC(C)c1nnc2c(C(=O)Nc3nnnn3C)ccc(C(F)(F)F)n12` (stereo not drawn) [2-052], in data set [1], the “A: Echinochloa oryzicola Vasing. (herbicidal effect grade)” value is listed as 5 (Herbicidal ratio of 90% or more (almost completely withered)). Also, the “C: Monochoria vaginalis” value with Monochoria vaginalis is given as 5 (Herbicidal ratio of 90% or more (almost completely withered)). The “B: Scirpus juncoides” value in the data set with Scirpus juncoides is reported as 5 (Herbicidal ratio of 90% or more (almost completely withered)). Further, the “E (herbicidal effect grade)” value in the data set on Cyperus difformis is on record as 5 (Herbicidal ratio of 90% or more (almost completely withered)). Besides, the “H (herbicidal effect grade)” value in data set [2] is 5 (Herbicidal ratio of 90% or more (almost completely withered)). For the same compound, the “D (herbicidal effect grade)” value with Leptochloa chinensis is 5 (Herbicidal ratio of 90% or more (almost completely withered)).
Turning to `Cn1nnnc1NC(=O)c1ccc(C(F)(F)F)n2c(SCC3CCCO3)nnc12` (stereo not drawn) [2-085], the “A: Echinochloa oryzicola Vasing. (herbicidal effect grade)” value in data set [1] is 5 (Herbicidal ratio of 90% or more (almost completely withered)). In addition, the “C: Monochoria vaginalis” value with Monochoria vaginalis was 4 (Herbicidal ratio of 70% or more and less than 90%). Moreover, in the data set with Scirpus juncoides, the “B: Scirpus juncoides” value is on record as 5 (Herbicidal ratio of 90% or more (almost completely withered)). Also, in the data set on Cyperus difformis, the “E (herbicidal effect grade)” value is 4 (Herbicidal ratio of 70% or more and less than 90%). Also, in data set [2], the “H (herbicidal effect grade)” value is reported as 5 (Herbicidal ratio of 90% or more (almost completely withered)). The “D (herbicidal effect grade)” value with Leptochloa chinensis was 5 (Herbicidal ratio of 90% or more (almost completely withered)).

By melting point is commonly meant the temperature of the solid-liquid transition.
